IC50 data for 27 molecules are collected here from patent US7816353B2 (Exelixis, Inc., priority 2003, dated 2010).

The term IC50 denotes the concentration needed to halve the response being measured.

T1 sequence (P23443 1-421 T412E): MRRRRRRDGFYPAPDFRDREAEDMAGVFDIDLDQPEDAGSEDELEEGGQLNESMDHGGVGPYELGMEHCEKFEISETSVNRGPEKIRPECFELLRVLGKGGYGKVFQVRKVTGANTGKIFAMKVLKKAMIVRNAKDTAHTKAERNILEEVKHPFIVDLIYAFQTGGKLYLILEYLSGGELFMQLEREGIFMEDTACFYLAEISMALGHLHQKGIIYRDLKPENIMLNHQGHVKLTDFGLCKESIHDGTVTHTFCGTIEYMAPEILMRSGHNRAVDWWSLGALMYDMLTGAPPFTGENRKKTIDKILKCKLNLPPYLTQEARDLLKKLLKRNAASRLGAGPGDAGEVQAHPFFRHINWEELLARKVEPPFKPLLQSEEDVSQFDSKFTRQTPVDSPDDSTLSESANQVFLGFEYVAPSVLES
T2 sequence (P31749 144-480): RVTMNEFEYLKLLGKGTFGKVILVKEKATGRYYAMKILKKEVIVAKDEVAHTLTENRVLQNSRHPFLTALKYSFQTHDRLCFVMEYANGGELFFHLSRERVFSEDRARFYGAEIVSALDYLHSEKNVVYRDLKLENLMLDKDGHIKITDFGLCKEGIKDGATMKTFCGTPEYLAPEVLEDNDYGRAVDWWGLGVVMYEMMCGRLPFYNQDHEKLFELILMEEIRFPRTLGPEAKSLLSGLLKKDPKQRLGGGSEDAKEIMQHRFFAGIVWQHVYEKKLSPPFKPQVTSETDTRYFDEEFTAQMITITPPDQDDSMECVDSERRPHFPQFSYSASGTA

One assay has as its target T1, p70S6K (Homo sapiens, UniProt P23443, T412E).
T1 construct: human p70S6 kinase domain residues 1-421, containing a T412E mutation; made in house
Put plainly: p70S6 Kinase Assay (Luciferase-Coupled Chemiluminescent Kinase assay, LCCA). It is filed as biochemical. The conditions noted are these: human p70S6 kinase domain residues 1-421, T412E; 5 μM ATP; read-out: p70S6K IC50. In a few lines: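 Luciferase-coupled chemiluminescence measured percent ATP remaining after the 2 h kinase reaction at ambient temperature, with ATP near the kinase's KM. Ten inhibitor concentrations were tested. IC50 was obtained from a Hill-equation fit.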
As for `Nc1nc(Cl)cc(SCC(=O)Nc2cccc(C(F)(F)F)c2)n1`, the half-maximal inhibitory concentration (IC50) lay in the range of 50 to 500 nM.

As for `CSc1nc(N)nc(SCC(=O)Nc2nc3ccccc3s2)c1C#N` [Example 23, 2-{[2-amino-5-cyano-6-(methylthio)pyrimidin-4-yl]thio}-N-1,3-benzothiazol-2-ylacetamide], the IC50 is less than 50 nM. Take `CCOc1nc(N)nc(N[C@@H](CCC[N+](C)(C)C)C(=O)Nc2cccc(C(F)(F)F)c2)c1C#N` [Example 169, N-((4S)-4-{[2-amino-5-cyano-6-(ethyloxy)pyrimidin-4-yl]amino}-5-oxo-5-{[3-(trifluoromethyl)phenyl]amino}pentyl)-N,N-dimethylmethanaminium]: the half-inhibitory concentration (IC50) was greater than 2000 nM. On the same count and under the same terms, with `CCOc1nc(N)nc(N[C@@H](CCC(=O)OC)C(=O)Nc2cccc(C(F)(F)F)c2)c1C#N` [Example 170, Methyl N~2~-[2-amino-5-cyano-6-(ethyloxy)pyrimidin-4-yl]-N-[3-(trifluoromethyl)phenyl]-L-alpha-glutaminate] the figure was greater than 2000 nM. For `CSc1nc(N)nc(N[C@@H](CCCCN(C)C)C(=O)Nc2cccc(C(F)(F)F)c2)c1C#N` [Example 171, N~2~-[2-amino-5-cyano-6-(methylthio)pyrimidin-4-yl]-N~6~,N~6~-dimethyl-N-[3-(trifluoromethyl)phenyl]-L-lysinamide], the IC50 is greater than 2000 nM. Take `CCOc1nc(N)nc(N[C@@H](CCC(=O)O)C(=O)Nc2cccc(C(F)(F)F)c2)c1C#N` [Example 173, N~2~-[2-amino-5-cyano-6-(ethyloxy)pyrimidin-4-yl]-N-[3-(trifluoromethyl)phenyl]-L-alpha-glutamine]: the IC50 was greater than 2000 nM. Regarding `CCOc1nc(N)nc(N(C)[C@@H](C)C(=O)Nc2cccc(Br)c2)c1C#N` [Example 174, N~2~-[2-amino-5-cyano-6-(ethyloxy)pyrimidin-4-yl]-N-(3-bromophenyl)-N~2~-methyl-L-alaninamide], the IC50 is greater than 2000 nM.

In the case of `CCOc1nc(N)nc(N[C@@H](CCC(N)=O)C(=O)Nc2cccc(C(F)(F)F)c2)c1C#N` [Example 175, N~2~-[2-amino-5-cyano-6-(ethyloxy)pyrimidin-4-yl]-N~1~-[3-(trifluoromethyl)phenyl]-L-glutamamide], the IC50 is greater than 2000 nM. Same read-out and setting: with `CCOc1nc(N)nc(N[C@@H](CN(C)C)C(=O)Nc2cccc(C(F)(F)F)c2)c1C#N` [Example 176, N~2~-[2-amino-5-cyano-6-(ethyloxy)pyrimidin-4-yl]-3-(dimethylamino)-N-[3-(trifluoromethyl)phenyl]-L-alaninamide] the figure was greater than 2000 nM; with `CCOc1nc(N)nc(N[C@@H](CCC(=O)NN)C(=O)Nc2cccc(C(F)(F)F)c2)c1C#N` [Example 177, ′2-(2-amino-5-cyano-6-ethoxy-pyrimidin-4-ylamino)-4-hydrazinocarbonyl-N-(3-trifluoromethyl-phenyl)-butyramide], greater than 2000 nM. On to `COc1nc(N)nc(N[C@@H](CN(C)C)C(=O)Nc2cccc(C(F)(F)F)c2)c1C#N` [Example 178, N~2~-[2-amino-5-cyano-6-(methyloxy)pyrimidin-4-yl]-3-(dimethylamino)-N-[3-(trifluoromethyl)phenyl]-L-alaninamide], for which the IC50 was greater than 2000 nM. For `COc1nc(N)nc(N[C@@H](C)C(=O)Nc2cc(OCCN(C)C)cc(C(F)(F)F)c2)c1C#N` [Example 179, N~2~-[2-amino-5-cyano-6-(methyloxy)pyrimidin-4-yl]-N-[3-{[2-(dimethylamino)ethyl]oxy}-5-(trifluoromethyl)phenyl]-L-alaninamide], the half-inhibitory concentration (IC50) is greater than 2000 nM. For `CCOc1nc(N)nc(N[C@@H](C)C(=O)Nc2cc(OCCN(C)C)cc(C(F)(F)F)c2)c1C#N` [Example 180, N~2~-[2-amino-5-cyano-6-(ethyloxy)pyrimidin-4-yl]-N-[3-{[2-(dimethylamino)ethyl]oxy}-5-(trifluoromethyl)phenyl]-L-alaninamide], the IC50 was greater than 2000 nM.

On to `COc1nc(N)nc(N(C)[C@@H](C)C(=O)Nc2cccc(Br)c2)c1C#N` [Example 181, N~2~-[2-amino-5-cyano-6-(methyloxy)pyrimidin-4-yl]-N-(3-bromophenyl)-N~2~-methyl-L-alaninamide], for which the concentration for half-maximal inhibition (IC50) was greater than 2000 nM. Regarding `CSc1nc(N)nc(N[C@@H](CCC(=O)OCc2ccccc2)C(=O)Nc2cccc(C(F)(F)F)c2)c1C#N` [Example 182, phenylmethyl N~2~-[2-amino-5-cyano-6-(methylthio)pyrimidin-4-yl]-N-[3-(trifluoromethyl)phenyl]-L-alpha-glutaminate], the IC50 is greater than 2000 nM.

Turning to `CSc1nc(N)nc(N[C@@H](COCc2ccccc2)C(=O)Nc2cccc(C(F)(F)F)c2)c1C#N` [Example 183, N~2~-[2-amino-5-cyano-6-(methylthio)pyrimidin-4-yl]-O-(phenylmethyl)-N-[3-(trifluoromethyl)phenyl]-L-serinamide], the IC50 was greater than 2000 nM.

Regarding `COCCN(CCC[C@H](Nc1nc(N)nc(SC)c1C#N)C(=O)Nc1cccc(C(F)(F)F)c1)CCOC` [Example 184, N~2~-[2-amino-5-cyano-6-(methylthio)pyrimidin-4-yl]-N~5~,N~5~-bis[2-(methyloxy)ethyl]-N-[3-(trifluoromethyl)phenyl]-L-ornithinamide], the IC50 is greater than 2000 nM. For the molecule `COc1nc(N)nc(N[C@@H](CCCNC(=O)OC(C)(C)C)C(=O)Nc2cccc(C(F)(F)F)c2)c1C#N` [Example 185, 1,1-dimethylethyl ((4S)-4-{[2-amino-5-cyano-6-(methyloxy)pyrimidin-4-yl]amino}-5-oxo-5-{[3-(trifluoromethyl)phenyl]amino}pentyl)carbamate], the concentration for half-maximal inhibition (IC50) is greater than 2000 nM. Turning to `CCOc1nc(N)nc(N[C@@H](CCCNC(C)=O)C(=O)Nc2cccc(C(F)(F)F)c2)c1C#N` [Example 186, N~5~-acetyl-N~2~-[2-amino-5-cyano-6-(ethyloxy)pyrimidin-4-yl]-N-[3-(trifluoromethyl)phenyl]-L-ornithinamide], the IC50 was greater than 2000 nM. Same read-out and setting: with `COc1nc(N)nc(N(C)[C@@H](C)C(=O)Nc2cccc(OC(F)(F)F)c2)c1C#N` [Example 188, N~2~-[2-amino-5-cyano-6-(methyloxy)pyrimidin-4-yl]-N~2~-methyl-N-{3-[(trifluoromethyl)oxy]phenyl}-L-alaninamide] the figure was greater than 2000 nM; with `COC(=O)c1cc(NC(=O)[C@H](C)Nc2nc(N)nc(OC)c2C#N)cc(C(F)(F)F)c1` [Example 189, methyl 3-({N-[2-amino-5-cyano-6-(methyloxy)pyrimidin-4-yl]-L-alanyl}amino)-5-(trifluoromethyl)benzoate], greater than 2000 nM. With `COc1nc(N)nc(N[C@@H](C)C(=O)Nc2cc(C(=O)NCCN(C)C)cc(C(F)(F)F)c2)c1C#N` [Example 190, 3-({N-[2-amino-5-cyano-6-(methyloxy)pyrimidin-4-yl]-L-alanyl}amino)-N-[2-(dimethylamino)ethyl]-5-(trifluoromethyl)benzamide], the IC50 is greater than 2000 nM. In the case of `CSc1nc(N)nc(N[C@@H](CN2CCOCC2)C(=O)Nc2cccc(C(F)(F)F)c2)c1C#N` [Example 191, N~2~-[2-amino-5-cyano-6-(methylthio)pyrimidin-4-yl]-3-morpholin-4-yl-N-[3-(trifluoromethyl)phenyl]-L-alaninamide], the IC50 is greater than 2000 nM. Same read-out and setting: with `COc1nc(N)nc(N[C@@H](CN2CCOCC2)C(=O)Nc2cccc(C(F)(F)F)c2)c1C#N` [Example 192, N~2~-[2-amino-5-cyano-6-(methyloxy)pyrimidin-4-yl]-3-morpholin-4-yl-N-[3-(trifluoromethyl)phenyl]-L-alaninamide] the figure was greater than 2000 nM; with `CCOc1nc(N)nc(N[C@@H](CN2CCOCC2)C(=O)Nc2cccc(C(F)(F)F)c2)c1C#N` [Example 193, N~2~-[2-amino-5-cyano-6-(ethyloxy)pyrimidin-4-yl]-3-morpholin-4-yl-N-[3-(trifluoromethyl)phenyl]-L-alaninamide], greater than 2000 nM. Take `CCOc1nc(N)nc(N[C@@H](COC)C(=O)Nc2cccc(C(F)(F)F)c2)c1C#N` [Example 197, N~2~-[2-amino-5-cyano-6-(ethyloxy)pyrimidin-4-yl]-O-methyl-N-[3-(trifluoromethyl)phenyl]-L-serinamide]: the IC50 is greater than 2000 nM. For `CSc1nc(N)nc(N[C@@H](CCCNS(C)(=O)=O)C(=O)Nc2cccc(C(F)(F)F)c2)c1C#N` [Example 198, N~2~-[2-amino-5-cyano-6-(methylthio)pyrimidin-4-yl]-N~5~-(methylsulfonyl)-N-[3-(trifluoromethyl)phenyl]-L-ornithinamide], the IC50 was greater than 2000 nM.

Another assay concerns the target T2, Akt1 (Homo sapiens, UniProt P31749).
T2 construct: made in house
Briefly: Akt1 Kinase Assay (Luciferase-Coupled Chemiluminescent Kinase assay, LCCA). It is filed as biochemical. The conditions noted are these: human Akt1 kinase domain residues R144-A480, activated with PDK1; 1 μM ATP; read-out: Akt-1 IC50. Here is the method:
Kinase activity and compound inhibition are investigated using one or more of the three assay formats described below. The ATP concentrations for each assay are selected to be close to the Michaelis-Menten constant (KM) for each individual kinase. Dose-response experiments are performed at 10 different inhibitor concentrations in a 384-well plate format. The data are fitted to four-parameter equation (2) below; where Y is the observed signal, X is the inhibitor concentration, Min is the background signal in the absence of enzyme (0% enzyme activity), Max is the signal in the absence of inhibitor (100% enzyme activity), IC50 is the inhibitor concentration at 50% enzyme inhibition and H represents the empirical Hill's slope to measure the cooperativity. Typically H is close to unity. Y=Min+(Max−Min)/(1+(X/IC50)^H) Equation (2) p70S6 Kinase Assay
Biochemical activity of Akt1 kinase was assessed using a Luciferase-Coupled Chemiluminescent Kinase assay (LCCA) format. Kinase activity was measured as the percent ATP remaining following the kinase reaction. Remaining ATP was detected by luciferase-luciferin-coupled chemiluminescence. Specifically, the reaction was initiated by mixing test compounds, 1 μM ATP, 5 μM crosstide peptide and 1.3 nM Akt1 (baculovirus expressed human Akt1 kinase domain residues R144-A480, activated with PDK1) in a 20 uL assay buffer (20 mM Tris-HCL pH 7.5, 10 mM MgCl2, 0.01% Triton X-100, 1 mM DTT, 3 mM MnCl2). The mixture is incubated at ambient temperature for 3 hours after which 20 μL luciferase-luciferin mix is added and the chemiluminescent signal read using a Wallac Victor2 reader. The luciferase-luciferin mix consists of 50 mM HEPES, pH 7.8, 8.5 μg/mL oxalic acid (pH 7.8), 5 (or 50) mM DTT, 0.4% Triton X-100, 0.25 mg/mL coenzyme A, 63 uM AMP, 28 μg/mL luciferin and 40,000 units/mL luciferase.
For the molecule `Nc1nc(Cl)cc(SCC(=O)Nc2cccc(C(F)(F)F)c2)n1`, the half-inhibitory concentration (IC50) is greater than 2000 nM. With `CSc1nc(N)nc(SCC(=O)Nc2nc3ccccc3s2)c1C#N` [Example 23, 2-{[2-amino-5-cyano-6-(methylthio)pyrimidin-4-yl]thio}-N-1,3-benzothiazol-2-ylacetamide], the IC50 was greater than 2000 nM.
